Positions of bridges follow the written chain, without caps; N, C: chain ends. Non-standard residues stand in square brackets, D forms with d. Residues, ends and D or L forms follow the SMILES beside them. *: point of attachment. Phe(4-COOH) = N[C@@H](Cc1ccc(C(=O)O)cc1)C(=O)O; Bip = N[C@@H](Cc1ccc(-c2ccccc2)cc1)C(=O)O; Phe(4-NH2) = Nc1ccc(C[C@H](N)C(=O)O)cc1; Phe(3-Me) = Cc1cccc(C[C@H](N)C(=O)O)c1; NMeF = CN[C@@H](Cc1ccccc1)C(=O)O; 4Pal = N[C@@H](Cc1ccncc1)C(=O)O; Cha = N[C@@H](CC1CCCCC1)C(=O)O; Cit = NC(=O)NCCC[C@H](N)C(=O)O; NMeL = CN[C@@H](CC(C)C)C(=O)O; Carboxymethyl = O=C(O)C*; NMeA = CN[C@@H](C)C(=O)O; Orn = NCCC[C@H](N)C(=O)O; dNMeA = CN[C@H](C)C(=O)O; Dab = NCC[C@H](N)C(=O)O; Dap = NC[C@H](N)C(=O)O; NBuGly = CCCCNCC(=O)O; Sar = CNCC(=O)O
Target: T1, human PD-1 (Jurkat-PD-1 cells) / PE-labeled human PD-L1-Ig (Homo sapiens, UniProt Q15116)
T1 construct: expressed in transfected cells; host or cells: Jurkat cell line over-expressing human PD-1
T1 sequence (Q15116 25-288): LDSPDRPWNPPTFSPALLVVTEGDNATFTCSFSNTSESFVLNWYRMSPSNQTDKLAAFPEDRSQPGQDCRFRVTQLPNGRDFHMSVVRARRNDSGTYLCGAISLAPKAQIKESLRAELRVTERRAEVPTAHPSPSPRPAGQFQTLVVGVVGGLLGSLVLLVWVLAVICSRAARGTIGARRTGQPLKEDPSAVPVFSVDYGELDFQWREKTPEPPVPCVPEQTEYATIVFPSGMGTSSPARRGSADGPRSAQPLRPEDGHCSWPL
Test: Jurkat-PD-1 Cell Binding High-Content Screening Assay (CBA); Jurkat hPD1-PDL1 assay
Conditions: Jurkat cell line over-expressing human PD-1; PE-labeled PD-L1-Ig 20 nM final; compound incubated 2 hours at 37° C.; read-out: Jurkat HPD1-PDL1 IC50
Method in brief: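 Read-out is high-content imaging of PE fluorescence on PD-1-over-expressing Jurkat cells. Cells are first exposed to compound for 2 hours at 37° C in serum-containing DMEM, after which PE-labeled PD-L1-Ig is added at 20 nM final.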

SMILES | IC50
CC(C)C[C@@H]1NC(=O)[C@H](CC(N)=O)NC(=O)[C@H](Cc2ccccc2)N(C)C(=O)[C@H](C)N(C)C(=O)[C@H](C(C)C)NC(=O)[C@H](Cc2ccc(-c3ccccc3)cc2)NC(=O)[C@H](C(C)C)NC(=O)[C@H](Cc2c[nH]c3ccccc23)NC(=O)[C@H](CC(=O)O)NC(=O)[C@H](Cc2ccc(O)cc2)NC(=O)[C@H](Cc2ccccc2)NC(=O)CSC[C@@H](C(=O)N[C@@H](C)C(N)=O)NC(=O)[C@H](CO)NC(=O)[C@H](C(C)C)NC1=O [Example 1112] ({CH2CO}-FYDWV[Bip]V[NMeA][NMeF]NLVSCA-NH2; thioether N-14) | 0.37 µM
CC(C)C[C@@H]1NC(=O)[C@H](CCCN)NC(=O)[C@H](Cc2ccccc2)N(C)C(=O)[C@H](C)N(C)C(=O)[C@H](CCCNC(=N)N)NC(=O)[C@H](Cc2ccc(-c3ccccc3)cc2)NC(=O)[C@H](C(C)C)NC(=O)[C@H](Cc2c[nH]c3ccccc23)NC(=O)[C@H](CC(=O)O)NC(=O)[C@H](Cc2ccc(O)cc2)NC(=O)[C@H](Cc2ccccc2)NC(=O)CSC[C@@H](C(=O)N[C@@H](CCC(=O)O)C(N)=O)NC(=O)[C@H]([C@@H](C)O)NC(=O)[C@H](C(C)C)NC1=O [Example 1361] ({CH2CO}-FYDWV[Bip]R[NMeA][NMeF][Orn]LVTCE-NH2; thioether N-14) | 0.38 µM
CC(C)C[C@@H]1NC(=O)[C@H](CCCNC(=N)N)NC(=O)[C@H](CC(C)C)N(C)C(=O)[C@H](C)N(C)C(=O)[C@H](CCCNC(=N)N)NC(=O)[C@H](Cc2ccc(-c3ccccc3)cc2)NC(=O)[C@H](C(C)C)NC(=O)[C@H](Cc2c[nH]c3ccccc23)NC(=O)[C@H](CC(=O)O)NC(=O)[C@H](Cc2ccc(O)cc2)NC(=O)[C@H](Cc2ccccc2)NC(=O)CSC[C@@H](C(=O)NCC(N)=O)NC(=O)[C@H](CO)NC(=O)[C@H](C(C)C)NC1=O [Example 1281] ({CH2CO}-FYDWV[Bip]R[NMeA][NMeL]RLVSCG-NH2; thioether N-14) | 0.46 µM
CC(C)C[C@@H]1NC(=O)[C@H](CCCNC(=N)N)NC(=O)[C@H](Cc2ccccc2)N(C)C(=O)[C@H](C)N(C)C(=O)[C@H](CCCNC(N)=O)NC(=O)[C@H](Cc2ccc(-c3ccccc3)cc2)NC(=O)[C@H](C(C)C)NC(=O)[C@H](Cc2c[nH]c3ccccc23)NC(=O)[C@H](CC(=O)O)NC(=O)[C@H](Cc2ccc(O)cc2)NC(=O)[C@H](CC(N)=O)NC(=O)CSC[C@@H](C(=O)N[C@@H](C)C(N)=O)NC(=O)[C@H](CCCN)NC(=O)[C@H](C(C)C)NC1=O [Example 1371] ({CH2CO}-NYDWV[Bip][Cit][NMeA][NMeF]RLV[Orn]CA-NH2; thioether N-14) | 0.23 µM
CC(C)C[C@@H]1NC(=O)[C@H](CCCNC(=N)N)NC(=O)[C@H](Cc2ccccc2)N(C)C(=O)[C@H](C)N(C)C(=O)[C@H](CCCNC(=N)N)NC(=O)[C@H](Cc2ccc(-c3ccccc3)cc2)NC(=O)[C@H](C(C)C)NC(=O)[C@H](Cc2c[nH]c3ccccc23)NC(=O)[C@H](CC(=O)O)NC(=O)[C@H](Cc2ccc(O)cc2)NC(=O)[C@H](Cc2ccccc2)NC(=O)CSC[C@@H](C(=O)NCC(N)=O)NC(=O)[C@H](CN)NC(=O)[C@H](C(C)C)NC1=O [Example 1330] ({CH2CO}-FYDWV[Bip]R[NMeA][NMeF]RLV[Dap]CG-NH2; thioether N-14) | 0.39 µM
CC(C)C[C@@H]1NC(=O)[C@H](Cc2c[nH]c3ccccc23)NC(=O)[C@H](CC(=O)O)NC(=O)[C@H](Cc2ccc(N)cc2)NC(=O)[C@H](Cc2ccccc2)NC(=O)CSC[C@@H](C(=O)N[C@@H](C)C(N)=O)NC(=O)[C@H](CO)NC(=O)[C@H](C(C)C)NC(=O)[C@H](CC(C)C)NC(=O)[C@H](CC(N)=O)NC(=O)CN(C)C(=O)[C@H](C)N(C)C(=O)[C@H](C(C)C)NC(=O)[C@H](Cc2ccc(-c3ccccc3)cc2)NC1=O [Example 1076] ({CH2CO}-F[Phe(4-NH2)]DWL[Bip]V[NMeA][Sar]NLVSCA-NH2; thioether N-14) | 0.21 µM
CC(C)C[C@@H]1NC(=O)[C@H](CCCNC(=N)N)NC(=O)[C@H](Cc2ccccc2)N(C)C(=O)[C@H](CCCCN)NC(=O)[C@H](CCCNC(=N)N)NC(=O)[C@H](Cc2ccc(-c3ccccc3)cc2)NC(=O)[C@H](C(C)C)NC(=O)[C@H](Cc2c[nH]c3ccccc23)NC(=O)[C@H](CC(=O)O)NC(=O)[C@H](Cc2ccc(O)cc2)NC(=O)[C@H](CC(N)=O)NC(=O)CSC[C@@H](C(=O)N[C@@H](C)C(N)=O)NC(=O)[C@H]([C@@H](C)O)NC(=O)[C@H](C(C)C)NC1=O [Example 1365] ({CH2CO}-NYDWV[Bip]RK[NMeF]RLVTCA-NH2; thioether N-14) | 0.76 µM

The next lines start with the values.

IC50 | SMILES
0.08 µM | CC(C)C[C@@H]1NC(=O)[C@H](Cc2c[nH]c3ccccc23)NC(=O)[C@H](CC(=O)O)NC(=O)[C@H](Cc2ccc(C(=O)O)cc2)NC(=O)[C@H](Cc2ccc(OCC(=O)O)cc2)NC(=O)CSC[C@@H](C(=O)N[C@@H](C)C(N)=O)NC(=O)[C@H](CO)NC(=O)[C@H](C(C)C)NC(=O)[C@H](CC(C)C)NC(=O)[C@H](CC(N)=O)NC(=O)[C@H]2CCCN2C(=O)[C@H](C)N(C)C(=O)[C@H](C(C)C)NC(=O)[C@H](Cc2ccc(-c3ccccc3)cc2)NC1=O [Example 1430] ({CH2CO}-Y(Carboxymethyl)[Phe(4-COOH)]DWL[Bip]V[NMeA][dP]NLVSCA-NH2; thioether N-14)
0.34 µM | CC(C)C[C@@H]1NC(=O)[C@H](CCCNC(=N)N)NC(=O)[C@H](Cc2ccccc2)N(C)C(=O)[C@H](C)N(C)C(=O)[C@H](CCCNC(=N)N)NC(=O)[C@H](Cc2ccc(-c3ccccc3)cc2)NC(=O)[C@H](C(C)C)NC(=O)[C@H](Cc2c[nH]c3ccccc23)NC(=O)[C@H](CC(=O)O)NC(=O)[C@H](Cc2ccc(O)cc2)NC(=O)[C@H](CC(N)=O)NC(=O)CSC[C@@H](C(=O)NCC(N)=O)NC(=O)[C@H]([C@@H](C)O)NC(=O)[C@H](C(C)C)NC1=O [Example 1310] ({CH2CO}-NYDWV[Bip]R[NMeA][NMeF]RLVTCG-NH2; thioether N-14)
0.29 µM | CCCCN1CC(=O)N[C@@H](CCN)C(=O)N[C@@H](CC2CCCCC2)C(=O)N[C@@H](C(C)C)C(=O)N[C@@H](CO)C(=O)N[C@H](C(=O)N[C@@H](CCN)C(N)=O)CSCC(=O)N[C@@H](Cc2ccncc2)C(=O)N[C@@H](Cc2ccc(OCC(=O)O)cc2)C(=O)N[C@@H](CC(=O)O)C(=O)N[C@@H](Cc2cccc(C)c2)C(=O)N[C@@H](Cc2ccc(OCC(=O)O)cc2)C(=O)N[C@@H](Cc2ccc(-c3ccccc3)cc2)C(=O)N[C@@H](Cc2ccc(OCC(=O)O)cc2)C(=O)N(C)[C@@H](C)C1=O [Example 1187] ({CH2CO}-[4Pal]Y(Carboxymethyl)D[Phe(3-Me)]Y(Carboxymethyl)[Bip]Y(Carboxymethyl)[NMeA][NBuGly][Dab][Cha]VSC[Dab]-NH2; thioether N-14)
0.13 µM | CC(C)C[C@@H]1NC(=O)[C@H](Cc2c[nH]c3ccccc23)NC(=O)[C@H](CC(=O)O)NC(=O)[C@H](Cc2ccc(O)cc2)NC(=O)[C@H](Cc2ccccc2)NC(=O)CSC[C@@H](C(=O)NCC(N)=O)NC(=O)[C@H]([C@@H](C)O)NC(=O)[C@H](C(C)C)NC(=O)[C@H](CC(C)C)NC(=O)[C@H](CCN)NC(=O)[C@H]2CCCN2C(=O)[C@H](CCCN)NC(=O)[C@H](C(C)C)NC(=O)[C@H](Cc2ccc(-c3ccccc3)cc2)NC1=O [Example 1420] ({CH2CO}-FYDWL[Bip]V[Orn][dP][Dab]LVTCG-NH2; thioether N-14)
0.23 µM | CC(C)C[C@@H]1NC(=O)[C@H](Cc2c[nH]c3ccccc23)NC(=O)[C@H](CC(=O)O)NC(=O)[C@H](Cc2ccc(O)cc2)NC(=O)[C@H](Cc2ccccc2)NC(=O)CSC[C@@H](C(=O)NCC(N)=O)NC(=O)[C@H](CO)NC(=O)[C@H](C(C)C)NC(=O)[C@H](CC(C)C)NC(=O)[C@H](CC(N)=O)NC(=O)[C@@H](C)N(C)C(=O)[C@H](C)N(C)C(=O)[C@H](C(C)C)NC(=O)[C@H](Cc2ccc(-c3ccccc3)cc2)NC1=O [Example 1082] ({CH2CO}-FYDWL[Bip]V[NMeA][dNMeA]NLVSCG-NH2; thioether N-14)
0.1 µM | CC(C)C[C@@H]1NC(=O)[C@H](Cc2c[nH]c3ccccc23)NC(=O)[C@H](CC(=O)O)NC(=O)[C@H](Cc2ccc(O)cc2)NC(=O)[C@H](Cc2ccccc2)NC(=O)CSC[C@@H](C(=O)NCC(N)=O)NC(=O)[C@H](CO)NC(=O)[C@H](C(C)C)NC(=O)[C@H](CC(C)C)NC(=O)[C@H](CCN)NC(=O)[C@H]2CCCN2C(=O)[C@H](CCCN)NC(=O)[C@H](C(C)C)NC(=O)[C@H](Cc2ccc(-c3ccccc3)cc2)NC1=O [Example 1423] ({CH2CO}-FYDWL[Bip]V[Orn][dP][Dab]LVSCG-NH2; thioether N-14)
0.06 µM | Cc1cccc(C[C@@H]2NC(=O)[C@H](Cc3ccccc3)NC(=O)CSC[C@@H](C(=O)N[C@@H](C)C(N)=O)NC(=O)[C@H](CO)NC(=O)[C@H](C(C)C)NC(=O)[C@H](CC(C)C)NC(=O)[C@H](CC(N)=O)NC(=O)[C@H]3CCCN3C(=O)[C@H](C)N(C)C(=O)[C@H](C(C)C)NC(=O)[C@H](Cc3ccc(-c4ccccc4)cc3)NC(=O)[C@H](CC(C)C)NC(=O)[C@H](Cc3c[nH]c4ccccc34)NC(=O)[C@H](CC(=O)O)NC2=O)c1 [Example 1033] ({CH2CO}-F[Phe(3-Me)]DWL[Bip]V[NMeA][dP]NLVSCA-NH2; thioether N-14)
0.43 µM | CC(C)C[C@@H]1NC(=O)[C@H](Cc2c[nH]c3ccccc23)NC(=O)[C@H](CC(=O)O)NC(=O)[C@H](Cc2ccc(O)cc2)NC(=O)[C@H](Cc2ccccc2)NC(=O)CSC[C@@H](C(=O)NCC(N)=O)NC(=O)[C@H](CO)NC(=O)[C@H](C(C)C)NC(=O)[C@H](CC(C)C)NC(=O)[C@H](CC(N)=O)NC(=O)[C@H](C)N(C)C(=O)[C@H](C)N(C)C(=O)[C@H](C(C)C)NC(=O)[C@H](Cc2ccc(-c3ccccc3)cc2)NC1=O [Example 1120] ({CH2CO}-FYDWL[Bip]V[NMeA][NMeA]NLVSCG-NH2; thioether N-14)

Source: US20240360178A1, “MACROCYCLIC IMMUNOMODULATORS” (Bristol-Myers Squibb Company, priority 2021, published 2024)
